Measurements: patent publication US12060335B1, “2-(benzo[d]oxazol-2-yl)-N′-(3,5-dichlorobenzoyloxy)acetimidamide as an antimicrobial compound” (KING FAISAL UNIVERSITY, priority 2023, dated 2024)

Legend:
[1] = test system: Pseudomonas aeruginosa; test: Agar plate disc-diffusion, antibacterial activity by measuring inhibition zone; type: cell-based; conditions: Gram negative, nutrient agar, 37° C., 48 hours
Procedure: (§1) The agar plate disc-diffusion method was applied. Sterilized filter papers (6 mm in diameter) were wetted with 10 μL of a solution 2-(benzo[d]oxazol-2-yl)-N′-(3,5-dichlorobenzoyloxy)acetimidamide (3) to be tested, containing 10 mg/mL in DMSO, and the discs were allowed to air dry. The discs were then placed onto the surface of agar plates (nutrient agar for bacteria and Sabouraud's dextrose agar for fungi) seeded with the test organism. Each plate contained 15 mL of the agar medium, previously seeded with 0.2 mL of the broth culture of each organism pregrown for 18 hours. The plates were incubated at 37° C. for 48 hours, and 72 hours for fungi. The inhibition zones was measured in mm. Discs impregnated with DMSO were used as a control, and its inhibition zone was subtracted from the tested compound actual inhibition zone.

[2] = test system: Escherichia coli; test: as above; type: cell-based; conditions: Gram negative, nutrient agar, 37° C., 48 hours
Procedure: as §1

[3] = test system: Staphylococcus aureus; test: as above; type: cell-based; conditions: Gram positive, nutrient agar, 37° C., 48 hours
Procedure: as §1, with “Sterilized filter papers (6 mm in diameter) were wetted with 10 μL of a solution 2-(benzo[d]oxazol-2-yl)-N′-(3,5-dichlorobenzoyloxy)acetimidamide (3) to be tested, containing 10 mg/mL in DMSO, and the discs were allowed to air dry.” left out

[4] = test system: Bacillus Cereus; test: as above; type: cell-based; conditions: Gram positive, nutrient agar, 37° C., 48 hours
Procedure: as §1, with “Sterilized filter papers (6 mm in diameter) were wetted with 10 μL of a solution 2-(benzo[d]oxazol-2-yl)-N′-(3,5-dichlorobenzoyloxy)acetimidamide (3) to be tested, containing 10 mg/mL in DMSO, and the discs were allowed to air dry.” left out

[5] = test system: Chrysosporium keratinophilum; test: Agar plate disc-diffusion, antifungal activity by measuring inhibition zone; type: cell-based; conditions: Sabouraud's dextrose agar, 72 hours
Procedure: as §1, with “Sterilized filter papers (6 mm in diameter) were wetted with 10 μL of a solution 2-(benzo[d]oxazol-2-yl)-N′-(3,5-dichlorobenzoyloxy)acetimidamide (3) to be tested, containing 10 mg/mL in DMSO, and the discs were allowed to air dry.” left out

[6] = test system: Aspergillus flavus; test: as above; type: cell-based; conditions: Sabouraud's dextrose agar, 72 hours
Procedure: as §1, with “Sterilized filter papers (6 mm in diameter) were wetted with 10 μL of a solution 2-(benzo[d]oxazol-2-yl)-N′-(3,5-dichlorobenzoyloxy)acetimidamide (3) to be tested, containing 10 mg/mL in DMSO, and the discs were allowed to air dry.” left out

[7] = test system: different microbes; test: Antimicrobial activity screen, overall statement; type: cell-based; conditions: against different microbes (bacteria and fungi of Tables 1 and 2)
Procedure: as §1

[8] = A = concentration of comp. = 10,000 μL
[9] = B = concentration of comp. = 30,000 μL
[10] = C = concentration of comp. = 50,000 μL

What does the source list for O=C(O)c1cn(C2CC2)c2cc(N3CCNCC3)c(F)cc2c1=O [Cip., ciprofloxacin, reference compound]?
inhibition zone [1, 8]: 29 mm; inhibition zone [1, 9]: 30 mm; inhibition zone ([1]; C =): 53 mm; inhibition zone [2, 8]: 30 mm; inhibition zone [2, 9]: 39 mm; inhibition zone [2, 10]: 60 mm; inhibition zone [3, 8]: 43 mm; inhibition zone [3, 9]: 44 mm; inhibition zone [3, 10]: 53 mm; inhibition zone [4, 8]: 29 mm; inhibition zone [4, 9]: 30 mm; inhibition zone ([4]; C =): 42 mm; inhibition zone [5, 8]: 29 mm; inhibition zone [5, 9]: 30 mm; inhibition zone [5, 10]: 53 mm; inhibition zone [6, 8]: 29 mm; inhibition zone [6, 9]: 30 mm; inhibition zone [6, 10]: 42 mm

Which results are given for N/C(Cc1nc2ccccc2o1)=N\OC(=O)c1cc(Cl)cc(Cl)c1 [Compound 3, 2-(benzo[d]oxazol-2-yl)-N′-(3,5-dichlorobenzoyloxy)acetimidamide]?
inhibition zone [1, 8]: 25 mm; inhibition zone [1, 9]: 27 mm; inhibition zone ([1]; C =): 43 mm; inhibition zone [2, 8]: 26 mm; inhibition zone [2, 9]: 34 mm; inhibition zone [2, 10]: 46 mm; inhibition zone [3, 8]: 19 mm; inhibition zone [3, 9]: 21 mm; inhibition zone [3, 10]: 29 mm; inhibition zone [4, 8]: 20 mm; inhibition zone [4, 9]: 22 mm; inhibition zone ([4]; C =): 30 mm; melting point: 158 to 159 °C; antimicrobial activities [7]: excellent antimicrobial activities; inhibition zone [5, 8]: 27 mm; inhibition zone [5, 9]: 29 mm; inhibition zone [5, 10]: 49 mm; inhibition zone [6, 8]: 20 mm; inhibition zone [6, 9]: 22 mm; inhibition zone [6, 10]: 29 mm
